As usually defined, the solubility is the dissolved amount per volume that the medium holds.

We go through 2 compounds from US10468722B2, “Organic synthesis applications of non-aqueous fluoride salt solutions” (CALIFORNIA INSTITUTE OF TECHNOLOGY, priority 2015, dated 2019).

The structures appear in SMILES notation.

One series can be described thus: physchem. To be noted: for Solubility in fluorinated solvents (in words): 3-fluorobenzonitrile and BTFE, useful concentrations e.g. >0.05 M; for Solubility vs. TMAF: in 3-fluorobenzonitrile, relative to TMAF; for solubility: organic solvent or mixture. How it is done: NpMe3NF is determined to be soluble in a given solvent if the concentration of NpMe3NF dissolved within the solvent is greater than 0.05 M.

The nature of series [1]: NpMe3NF stability in various solvents by 1H and 19F NMR. Type of series: physicochemical. How it is done:
NpMe3NF stability in various solvents is analyzed by ^1H and ^19F NMR measurements. Preliminary criteria used for a solvent being “chemically stable” to the F^− ion are observation of a clear, sharp peak in the ^19F spectrum, alongside a 1:1:1 triplet arising from the DF2^− formation from the deuterated acetonitrile solvent (CD3CN).

The mark [2] stands for this setting: in 2,6-difluoropyridine (2,6-F2Py).
Where [3] appears, read: in 3-methoxypropionitrile (3-MeOPN).

Regarding `CC(C)(C)C[N+](C)(C)CC(C)(C)C.[F-]` [Np2Me2NF, bis(2,2-dimethylpropyl)dimethylammonium fluoride], in the series “physchem”, the “Solubility in fluorinated solvents (in words)” value is “significantly higher solubility”, the “Solubility vs. TMAF” value was greater than 10x and the solubility amounted to 340 mM.
Take `CC(C)(C)C[N+](C)(C)C.[F-]` [NpMe3NF, (2,2-dimethylpropyl)trimethylammonium fluoride]: the “Solubility in fluorinated solvents (in words)” value in the series “physchem” is on record as “significantly higher solubility”. In addition, the “Approximate Solubility” value turned out to be 110 mM in the series “physchem” (in 1,3-Dimethyl-3,4,5,6-tetrahydro-2(1H)-pyrimidinone (DMPU)); 950 mM in the series “physchem” (in 2,2,2-trifluoroethyl trifluoroacetate (TFE-TFA)); 400 mM in “physchem” (in 2,3-difluorobenzonitrile (2,3-F2BN)); 390 mM in the series “physchem” (setting [2]); 120 mM in the series “physchem” (in 2-fluorobenzonitrile (2-FBN)); 190 mM in “physchem” (in 3-fluorobenzonitrile (3-FBN)). The “Approximate Solubility” value in “physchem” (setting [3]) was found to be 780 mM; in “physchem” (in (Dimethylamino)acetonitrile (DMAN)), 140 mM; in the series “physchem” (in Fluoroethylene carbonate (FEC)) it was 710 mM; in “physchem” (in Tris(2,2,2-trifluoroethyl)phosphite (TTFP)), 1050 mM; in the series “physchem” (in methoxyacetonitrile (MeOAN)), 800 mM; in “physchem” (in phenyl trifluoroacetate (PhTFA)), 470 mM. Moreover, in “physchem” (in propionitrile (PN)), the “Approximate Solubility” value was found to be 70 mM. Moreover, the “Solubility vs. TMAF” value in “physchem” was greater than 6x. The solubility in the series “physchem” was found to be 190 mM. In addition, the “Stability (1H and 19F NMR)” value in series [1] (setting [2]) is recorded as “good stability”; in series [1] (setting [3]), “poor stability”; in series [1] (in BTFE), “good stability”; in series [1] (in Bis(2,2,2-trifluoroethyl) carbonate (BTFEC)), “poor stability”; in series [1] (in propionitrile (PN)) it was “good stability”.
